Values quoted from earlier work, collected in patent US20190274971A1, “USE OF AMERICAN GINSENG TO […]-INDUCED INTOXICATION” (ENGEN MEDICAL CORPORATION, priority 2018, published 2019).

Target: CB1 receptor (Homo sapiens, UniProt P21554)
Conditions: literature statement (Leonti et al., Biochemical Pharmacology 79(12):1815-1826, 2010)

Sequence of CB1 receptor (P21554 whole entry): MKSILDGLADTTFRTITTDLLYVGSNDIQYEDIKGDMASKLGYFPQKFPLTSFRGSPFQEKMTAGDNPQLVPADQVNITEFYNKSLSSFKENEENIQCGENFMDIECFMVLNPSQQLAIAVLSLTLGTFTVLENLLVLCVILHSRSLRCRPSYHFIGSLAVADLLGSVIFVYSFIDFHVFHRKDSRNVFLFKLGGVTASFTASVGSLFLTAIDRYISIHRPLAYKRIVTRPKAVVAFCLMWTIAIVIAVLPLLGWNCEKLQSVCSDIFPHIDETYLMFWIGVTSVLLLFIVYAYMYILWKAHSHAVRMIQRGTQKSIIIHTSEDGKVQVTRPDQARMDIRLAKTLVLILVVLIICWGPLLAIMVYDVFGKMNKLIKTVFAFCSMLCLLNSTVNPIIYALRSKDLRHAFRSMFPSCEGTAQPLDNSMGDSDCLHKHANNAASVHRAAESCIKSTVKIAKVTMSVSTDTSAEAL

Compound: C=C[C@H](O)C#CC#CC/C=C\CCCCCCC [falcarinol]
- activity at the CB1 receptor: potent inverse agonist
